Data reported in ChEMBL document CHEMBL1201862, “PubChem BioAssay data set” (2004).
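1) Cells in 96-well plates. 2) Compound, 48 h, 5 concentrations. 3) Linear interpolation between surrounding doses. 4) Unreached endpoint = highest concentration. Here, GI50 denotes the concentration required for 50% inhibition of growth.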 Active and inactive are the calls of the source. Cut-off read from the data, not from the text of the source: active = GI50 up to about 1.1 µM and inactive = higher.

How the values were obtained:
Experiment in all cases: NCI anticancer screen, dose series, 48 h
DLD-1 = tested on: DLD-1
DMS-114 = tested on: DMS-114
DMS-273 = tested on: DMS-273
HOP-18 = tested on: HOP-18
KM-20L2 = tested on: KM-20L2
LXFL 529 = tested on: LXFL 529
M19-MEL = tested on: M19-MEL
RXF 631 = tested on: RXF 631
XF498 = tested on: XF498

Measured: GI50

C=C(CCCCCCCCC)CC(=O)SCCNC(=O)CCNC(=O)C(O)C(C)(C)COP(=O)(O)OP(=O)(O)OCC1OC(n2cnc3c(N)ncnc32)C(O)C1OP(=O)(O)O (centres undefined)
inactive: DLD-1 42.9 µM | DMS-114 55.3 µM | DMS-273 21 µM | HOP-18 29.4 µM | KM-20L2 > 100 µM | LXFL 529 56.2 µM | M19-MEL 29.8 µM | RXF 631 55.2 µM | XF498 50 µM
